Tests used:
[1] = test system: tumor-infiltrating immune cells in Hepa1-6 tumor; test: Flow cytometric analysis of tumor-infiltrating immune cells in the Hepa1-6 model; assay type: in vivo, C57 BL/6 mice; details: Hepa1-6 tumor tissue, 25 mg/kg, 2 h after the last treatment
From the text: (§1) Encouraged by its intriguing cellular activities, we investigated the anti-tumor effect of compound 12 in vivo. The Hepa1-6 liver cancer model, an immunocompetent macrophage-rich subcutaneous murine tumor model, was thus established. […] To further investigate whether the in vivo anti-tumor effect of compound 12 is associated with its inhibition of pro-tumoral macrophages and consequent activation of anti-tumor CD8^+ T cells, we analyzed the infiltration of macrophages and CD8^+ T cells in the tumor tissue of the Hepa1-6 model.
Animal procedures were approved by the Institutional Animal Care and Use Committee of the Shanghai Institute of Materia Medica (approval no. 2024-06-DJ-95). Mice (4–6 weeks old) were housed with five or six mice per cage in a specific pathogen-free room with a 12 h light/dark schedule at 25 °C ± 1 °C and were fed an autoclaved chow diet and water ad libitum. Hepa1-6 cells (2 × 10^6 cells) were subcutaneously implanted in the right flank of C57 BL/6 mice. When the tumors reached a volume of around 50 mm^3, the mice were randomized into the treatment groups. The vehicle groups were given the vehicle alone, and the treatment groups received compound 1 in the indicated doses via intratumoral injections once daily on the indicated days. The tumor volumes and body weights were measured twice per week. Tumor volume (TV) was calculated as follows: TV = (length × width^2)/2. Significant differences between the treated versus the vehicle groups were determined using the Student’s t-test. […] Consequently, the sample size for this treatment group was reduced to 7. Hepa1-6 tumor tissues were minced and digested using a Mouse Tumor Dissociation Kit (Miltenyi, Bergisch Gladbach, Germany). The cells were passed through a 70 μm cell strainer, stained with a fluorescent antibody or the matching isotype controls for 30 min at room temperature, and then tested using a BD CytoFLEX LX (Beckman). […] Viability was determined by staining with either the LIVE/DEAD® Fixable Violet Dead Cell Stain Kit (Invitrogen, Waltham, […], USA) or the Zombie Aqua™ Fixable Viability Kit (Biolegend, San Diego, CA, USA). Data were analyzed using FlowJo10.4 software.
Figure 4 Compound 12 inhibited Hepa1-6 tumor growth in vivo and remodeled the tumor microenvironment. […] The TVs (A) and body weights (B) are presented as the mean ± SEM. * p < 0.05 vs. the vehicle group, determined by the Student’s t-test. […] The infiltration of CD45^+ cells (C), TAMs (D), CD206^+ TAMs (E), ARG1^+ TAMs (F), CD8^+ T cells (G), GRZB^+ CD8^+ T cells (H), IFN γ^+ CD8^+ T cells (I), and TNF α^+ CD8^+ T cells (J) was tested (n = 8 mice in the vehicle group and n = 7 mice in the 12-treated group). * p < 0.05, ** p < 0.01, *** p < 0.001 vs. the vehicle group, determined by the Student’s t-test. […]

Raw264.7 cells = test: Cell viability (CCK-8) of RAW264.7 cells; assay type: cell-based, mouse; details: IL-4/IL-13 plus compound 10 μM, 12 h
Protocol: Cells were seeded in 96-well tissue culture plates. On the next day, cells were exposed to various concentrations of compounds and further cultured for the indicated period. Finally, cell proliferation was determined by using the Cell Counting Kit (CCK-8) (Dojindo, Kumamoto, Japan) assay.
Figure S2. Effects of natural pseudolaric acids 1-4, 6 and their O-pyranosides 5, 7 as well as the derivatives 8-18 o f 1 on Raw264.7 cell viability. Raw264.7 cells were treated with IL-4/IL-13 alone or combined with indicated compounds (10 μM) for 12 h. After incubation, the cell viability was determined using a cell counting kit (CCK-8, Dojindo, Japan) assay.
(1 picture or pasted object on this page, not shown here)

Hepa1-6 tumor = test: In vivo anti-tumor efficacy, Hepa1-6 subcutaneous tumor model; details: Hepa1-6 model; for tumor growth inhibitory rate: intraperitoneal injections, once daily
From the text: as §1
Animal procedures were approved by the Institutional Animal Care and Use Committee of the Shanghai Institute of Materia Medica (approval no. 2024-06-DJ-95). Mice (4–6 weeks old) were housed with five or six mice per cage in a specific pathogen-free room with a 12 h light/dark schedule at 25 °C ± 1 °C and were fed an autoclaved chow diet and water ad libitum. Hepa1-6 cells (2 × 10^6 cells) were subcutaneously implanted in the right flank of C57 BL/6 mice. […] The tumor volumes and body weights were measured twice per week. Tumor volume (TV) was calculated as follows: TV = (length × width^2)/2. Significant differences between the treated versus the vehicle groups were determined using the Student’s t-test. […] Viability was determined by staining with either the LIVE/DEAD® Fixable Violet Dead Cell Stain Kit (Invitrogen, Waltham, […], USA) or the Zombie Aqua™ Fixable Viability Kit (Biolegend, San Diego, CA, USA). Data were analyzed using FlowJo10.4 software.
Figure 4 Compound 12 inhibited Hepa1-6 tumor growth in vivo and remodeled the tumor microenvironment. […] The TVs (A) and body weights (B) are presented as the mean ± SEM. * p < 0.05 vs. the vehicle group, determined by the Student’s t-test. […] The infiltration of CD45^+ cells (C), TAMs (D), CD206^+ TAMs (E), ARG1^+ TAMs (F), CD8^+ T cells (G), GRZB^+ CD8^+ T cells (H), IFN γ^+ CD8^+ T cells (I), and TNF α^+ CD8^+ T cells (J) was tested (n = 8 mice in the vehicle group and n = 7 mice in the 12-treated group). * p < 0.05, ** p < 0.01, *** p < 0.001 vs. the vehicle group, determined by the Student’s t-test.

COC(=O)C1=CC[C@@]23CC[C@@H]([C@@](C)(/C=C/C=C(\C)C(=O)NNCCO)OC2=O)[C@@]3(OC(C)=O)CC1 [compound 12, Methyl(3R,4S,4aS,9aR)-4a-acetoxy-3-((1E,3E)-5-(2-(2-hydroxyethyl)hydrazineyl)-4-methyl-5-oxopenta-1,3-dien-1-yl)-3-methyl-1-oxo-3,4,4a,5,6,9-hexahydro-1H-4,9a-ethanocyclohepta[c]pyran-7-carboxylate]
TAMs with the M1-like phenotype (CD86+ TAMs, MHC II+ TAMs) [1]: marginal upregulation
infiltration of CD8+ T cells and activated (GRZB+, IFNγ+, TNFα+) CD8+ T cells in CD45+ cells [1]: significantly upregulated
infiltration of total immune cells (CD45+ cells) [1]: increasing trend
tumor infiltration of total TAMs, CD206+ TAMs and ARG1+ TAMs in CD45+ cells [1]: significantly reduced
cell viability (Raw264.7 cells): no significant diminution in cell viability
body weight during the treatment (Hepa1-6 tumor; 25 and 50 mg/kg): no obvious loss of body weight
tumor growth inhibitory rate (Hepa1-6 tumor; 25 mg/kg): 53.2%
tumor growth inhibitory rate (Hepa1-6 tumor; 50 mg/kg): 48.3%
